For one experiment, the target named is T1, D(4) dopamine receptor (Homo sapiens, UniProt P21917).
T1 sequence (P21917 whole entry): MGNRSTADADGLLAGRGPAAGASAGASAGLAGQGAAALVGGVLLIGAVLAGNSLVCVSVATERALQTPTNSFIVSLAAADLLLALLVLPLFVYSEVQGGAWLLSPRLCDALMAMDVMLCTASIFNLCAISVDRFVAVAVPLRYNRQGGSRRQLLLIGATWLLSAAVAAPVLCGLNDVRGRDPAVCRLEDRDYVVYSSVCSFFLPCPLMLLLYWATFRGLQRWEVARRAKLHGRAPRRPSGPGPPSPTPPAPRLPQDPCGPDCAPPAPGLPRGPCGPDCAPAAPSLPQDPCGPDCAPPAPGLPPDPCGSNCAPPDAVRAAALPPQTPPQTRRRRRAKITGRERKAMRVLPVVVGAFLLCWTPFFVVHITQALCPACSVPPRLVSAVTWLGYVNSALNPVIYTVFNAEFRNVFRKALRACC
The experiment can be described thus: Antagonistic activity against human Dopamine receptor D4.2 using [35S]GTP-gamma-S binding assay. For orientation: Binding of GTPγS marks nucleotide exchange on a G protein.

Experiment [1] addresses T2, Adrenergic receptor alpha-1 (Homo sapiens, UniProt P35348+P25100+P35368).
T2 sequence (P35348 whole entry): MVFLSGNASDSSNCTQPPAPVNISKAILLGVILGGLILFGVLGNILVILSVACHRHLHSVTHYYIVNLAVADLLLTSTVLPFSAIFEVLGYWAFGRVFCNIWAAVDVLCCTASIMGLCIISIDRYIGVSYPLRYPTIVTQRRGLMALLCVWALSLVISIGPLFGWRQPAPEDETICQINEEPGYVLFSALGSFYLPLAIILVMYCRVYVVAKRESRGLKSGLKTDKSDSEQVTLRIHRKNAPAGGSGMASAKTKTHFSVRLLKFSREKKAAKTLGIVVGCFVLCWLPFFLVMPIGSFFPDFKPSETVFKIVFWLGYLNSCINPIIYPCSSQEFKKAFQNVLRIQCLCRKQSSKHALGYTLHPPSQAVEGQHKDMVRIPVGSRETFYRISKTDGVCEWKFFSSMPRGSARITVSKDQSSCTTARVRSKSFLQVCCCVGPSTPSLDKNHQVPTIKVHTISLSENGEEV
T2 sequence (P25100 whole entry): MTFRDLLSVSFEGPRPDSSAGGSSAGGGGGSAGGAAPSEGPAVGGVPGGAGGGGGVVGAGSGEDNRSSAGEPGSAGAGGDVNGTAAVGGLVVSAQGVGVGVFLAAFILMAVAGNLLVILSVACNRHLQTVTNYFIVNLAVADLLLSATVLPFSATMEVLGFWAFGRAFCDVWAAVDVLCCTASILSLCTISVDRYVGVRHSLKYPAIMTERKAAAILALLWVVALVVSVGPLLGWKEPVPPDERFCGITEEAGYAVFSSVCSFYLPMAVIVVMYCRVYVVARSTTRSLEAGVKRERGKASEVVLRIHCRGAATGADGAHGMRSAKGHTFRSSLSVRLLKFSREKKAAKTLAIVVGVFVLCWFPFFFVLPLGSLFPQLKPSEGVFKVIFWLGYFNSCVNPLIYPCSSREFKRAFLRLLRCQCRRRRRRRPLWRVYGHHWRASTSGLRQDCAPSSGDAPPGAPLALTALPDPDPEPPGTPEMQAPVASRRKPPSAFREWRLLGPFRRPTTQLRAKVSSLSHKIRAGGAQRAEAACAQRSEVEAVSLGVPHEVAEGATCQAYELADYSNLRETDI
T2 sequence (P35368 whole entry): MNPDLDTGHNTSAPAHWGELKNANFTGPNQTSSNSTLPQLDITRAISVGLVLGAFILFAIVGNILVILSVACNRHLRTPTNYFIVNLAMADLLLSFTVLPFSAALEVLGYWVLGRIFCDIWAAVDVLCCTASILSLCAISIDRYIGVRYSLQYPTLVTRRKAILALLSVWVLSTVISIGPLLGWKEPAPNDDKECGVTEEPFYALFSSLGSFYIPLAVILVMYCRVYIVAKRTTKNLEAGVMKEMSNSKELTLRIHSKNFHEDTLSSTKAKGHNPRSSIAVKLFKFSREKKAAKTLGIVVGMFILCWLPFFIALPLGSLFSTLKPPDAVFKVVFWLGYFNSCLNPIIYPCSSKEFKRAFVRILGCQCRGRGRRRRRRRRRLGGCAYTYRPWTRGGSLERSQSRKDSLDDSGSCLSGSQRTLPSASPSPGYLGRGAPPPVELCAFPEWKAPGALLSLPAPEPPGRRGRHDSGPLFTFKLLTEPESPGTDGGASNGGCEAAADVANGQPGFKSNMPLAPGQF
The experiment can be described thus: Binding affinity towards cloned human Alpha-1 adrenergic receptor was determined. The format is protein assay.

The next experiment concerns the target D(1A) dopamine receptor (Homo sapiens, UniProt P21728). The experiment can be described thus: Binding affinity towards Dopamine receptor D1 was determined.

Where only a bound is given, the exact number is not on record here.

D(1A) dopamine receptor, sequence (P21728 whole entry): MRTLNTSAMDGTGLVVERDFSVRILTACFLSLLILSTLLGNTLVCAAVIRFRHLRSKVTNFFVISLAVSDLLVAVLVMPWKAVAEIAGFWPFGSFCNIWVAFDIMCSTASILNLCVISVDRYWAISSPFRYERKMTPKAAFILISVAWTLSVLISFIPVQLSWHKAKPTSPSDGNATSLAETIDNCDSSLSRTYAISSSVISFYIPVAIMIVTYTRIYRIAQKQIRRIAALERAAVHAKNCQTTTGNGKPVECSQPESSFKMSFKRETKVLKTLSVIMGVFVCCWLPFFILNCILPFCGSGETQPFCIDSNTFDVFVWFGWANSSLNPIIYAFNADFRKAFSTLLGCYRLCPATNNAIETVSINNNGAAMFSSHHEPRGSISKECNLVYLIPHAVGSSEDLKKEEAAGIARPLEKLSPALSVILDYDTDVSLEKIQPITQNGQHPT

For orientation: EC50 means the midpoint of the concentration-response curve. The term Ki denotes the equilibrium dissociation constant of an inhibitor or competing ligand from its target. High values mean a looser hold on the target, low ones a stronger hold on the target. `Cc1sc(C)c2c1CCCc1c[nH]nc1-2` came in with an EC50 at D(4) dopamine receptor of 0.009 µM. The Ki (in experiment [1]; at D(1A) dopamine receptor) was > 10 µM each time.

For the origin of these results see ChEMBL document CHEMBL1136188, “1H-Pyrazolo-[3,4-c]cyclophepta[1,2-c]thiophenes: a unique structural class of dopamine D4 selective ligands” (Bioorg Med Chem Lett, 2003).
